Assay results reported in patent US20100144854A1 (priority 2007, published 2010).

How the values were obtained:
Format in all cases: in vivo, human
[1] = test system: Adenocarcinoma of the prostate; assay: Example 7: patient with prostate adenocarcinoma treated with rhodamine 6G; conditions: Patient Sh., 55
Protocol: The patient presented complaining of a sharp pain when urinating and of retention and reddish color of the urine. On examination: Ultrasound scan—prostate approximately 85 cm^3, tumor with irregular contours, 34×40 mm^2 in size. PSA-49.9 […].
Needle biopsy—adenocarcinoma of the prostate.
Diagnosis: Adenocarcinoma of the prostate. The patient refused surgical intervention and chemotherapy.
At night a suppository containing 2% of the preparation was administered.

amyloidosis = assay: Example 1: patient with amyloidosis treated with rhodamine 6G; conditions: Patient V
Protocol: Patient V. Diagnosis: amyloidosis. The patient felt lethargic and “under the weather”. […] The first course of treatment with the preparation consisted of 15 drops of a 1% solution in a glass of water three times a day by mouth, at the evening meal in addition a microenema of 10 drops of a 1% solution in 30 ml of water, and at night a 1% suppository containing the preparation. […] By the third week after the start of treatment the patient's condition had improved. In the words of relatives, the patient was “feeling better”. […] Blood analyses against the treatment background were normal.

[2] = test system: primary generalized amyloidosis; assay: Example 10: patient with primary generalized amyloidosis treated with rhodamine 6G; conditions: Patient T, 67
Description: Patient T. Diagnosis: Ischemic heart disease: Atherosclerosis, cardiosclerosis, atrial fibrillation. Amyloidosis? On account of deterioration in the patient's condition (increased frequency of dyspnea) the patient was hospitalised. On admission the patient's overall condition was fairly serious. Skin and visible mucous membranes normal colour, moderately cyanosed lips. Heart sounds—muffled, arrhythmia—atrial fibrillation with frequency of ventricular contractions 110 beats/min (pulse deficiency 12), blood pressure 100/60 mm Hg. In left lung, dull percussion sound below the middle of the shoulder blade; no breathing detected above this region. Individual moist rales heard to the right in the projection of the lower lobe. Diseased liver, lower edge extending 4 cm below the level of the costal margin. Edema of the legs as far as middle third of femur and anasarca were diagnosed.
Low voltage waves recorded on ECG, taxistological shape of atrial fibrillation, QS in leads V1-V4. […] Disturbed diastolic relaxation of myocardium of left ventricle was noted. […] In the biochemical blood analysis the level of total protein was reduced (down to 50 g/l), while the levels of urea (to 9.66 mmol/l) and creatinine (to […]) were both raised. […] Ultrasound investigation of organs of the abdominal cavity: enlarged liver (right lobe—16.9 cm), echogenicity reduced, and irregular structure; portal vein−15 mm. Gall bladder: 52×22 mm, wall up to 4 mm, unobstructed lumen. Pancreas: uniform, echogenicity raised, focalized diffuse changes. […] Calyculate-pelvic system of both kidneys not enlarged. Fogging of the lung pattern and diffuse changes were observed on an anterioposterior chest X-ray. A needle liver biopsy was performed in order to exclude amyloidosis. Signs of primary amyloidosis were detected. […] 5% suppositories in the rectum at night. Treatment according to this regimen was continued for 2 months. […] Intravenous administration twice a week. The course of treatment lasted 2 months. […] The liver and kidneys were normal size on an ultrasound scan.

Substance: 9-(2-ethoxycarbonyl)phenyl)-3,6-bis(ethylamino)2,7-dimethylxanthyl chloride [rhodamine 6G]
- pain experienced on urination ([1]; 40 days powder oral and 2% suppository): decreased in intensity
- decrease of size of the prostate, ultrasound ([1]; after 40 days, before approximately 85 cm^3): 40%
- recurrence of the cancer ([1]; over 2 years): No recurrence
- prostate size, ultrasound ([1]; subsequent examination after further 2 weeks oral and enemas): approximately 35 cm^3
- PSA ([1]; subsequent examination, before 49.9 ng/mL): 1 ng/mL
- blood analyses against the treatment background (amyloidosis): normal
- patient's condition (amyloidosis; 73, first week, 1% solution oral, microenema, 1% suppository): basically no change
- patient's condition (amyloidosis; one year after treatment): significantly improved
- patient's condition (amyloidosis; third week after start of treatment): improved
- amyloid foci in the brain, CT scan (amyloidosis; three months after start of treatment): reduction of amyloid foci in the brain
- condition of the patient ([2]; 5 g in 250 ml water three times a day, 5% suppositories, 2 months): gradually improved
- size of the heart, echocardiogram ([2]; after oral/rectal 2 months and 2 g i.v. twice a week 2 months): reduced
- blood and urine analyses ([2]; after treatment): in the normal range
- dilation of the left and right atria, echocardiogram ([2]; after treatment): significantly reduced
- fibrillation on the EKG ([2]; after treatment): no fibrillation
- liver and kidneys, ultrasound scan ([2]; after treatment): normal size
- patient's complaints ([2]; after treatment): no complaints
- voltage waves on the EKG ([2]; after treatment): in the normal range
